Test results from patent US20240327415A1, “Multicomponent Complexes, Including Salts, Crystalline Forms, and Hydrates and Solvates of ENT1 Inhibitors” (iTeos Belgium SA, priority 2023, published 2024).
In brackets after ≈: the same amount, converted by molar mass. Read-outs that look alike come from different tables or passages of the source.

Assays:
Format in all cases: physicochemical
[1] = pH solubility studies in buffers and biorelevant media (Example 16); settings: for solubility at 24 h: thermodynamic from solid
Description: Example 16—pH Solubility Studies—(1) Crystalline Form 2 Compound 1 di(hydrogen sulfate) trihydrate, (2) Crystalline Form 3 Compound 1 di(hydrogen sulfate), and (3) Crystalline Form 4 Compound 1 mono(hydrogen sulfate): pH solubility studies were carried out on the prepared crystalline Form 2 Compound 1 di(hydrogen sulfate) trihydrate, crystalline Form 3 Compound 1 di(hydrogen sulfate) and crystalline Form 4 Compound 1 mono(hydrogen sulfate) in the following media: (1) HCl/KCl, pH 1.2; (2) Acetate, pH 4.5; (3) Phosphate, pH 6.8; (4) FaSSIF; (5) FeSSIF; and (6) FaSSGF. Slurries of the hydrogen sulfate forms were prepared in the appropriate medium and stirred at 25° C. For the experiments in the buffer media, the pH of the slurry samples was measured and adjusted as required after 1 hour and 23 hours of the slurrying. Additional solid was added where dissolution was observed post-adjustment. The pH of the samples in the biorelevant media was measured at the 23 hour timepoint. No pH adjustment was made for the biorelevant media. After a total of 24 hours of slurrying, the mother liquors were extracted via centrifugation, and the concentrations and solution purity were determined by HPLC. The residual solids were isolated and analyzed by XRPD and are shown in FIG. 77, FIG. 78, and FIG. 79. The assessment was repeated for some of the samples, where required.

[2] = TG/DSC and DSC thermal analysis
Description: (§1) In the examples below, to measure TGA/DSC, 2-10 mg of material was added into a pre-tared open aluminum pan and loaded into a TA Instruments Discovery SDT 650 Auto—Simultaneous DSC and held at room temperature. The sample was then heated at a rate of 10° C./min from 30° C. to 400° C. during which time the change in sample weight was recorded along with the heat flow response (DSC). Nitrogen was used as the sample purge gas, at a flow rate of 200 cm^3/min.
(§2) METHOD A: In Example 3, 1-5 mg of material was weighed into an aluminum DSC pan and sealed non-hermetically with a pierced aluminum lid. The sample pan was then loaded into a TA DSC2500 and held at 20° C. Once a stable heat-flow response was obtained, the sample and reference were heated to an upper temperature of 200° C. at a scan rate of 10° C./min and the resulting heat flow response monitored. The sample was held at the upper temperature for 3 minutes, before it was cooled at 10° C./min to 20° C., reheated to the upper temperature at 10° C./min, and then cooled again to 20° C. at the same rate. Nitrogen was used as the purge gas, at a flow rate of 50 cm^3/min.
as §2, with “B:” for “A:”, “Examples 2A, 14, and 17,” for “Example 3,”, “−80° C. and then” for “20° C.,”, “C./min.” for “C./min, and then cooled again to 20° C. at the same rate.”
METHOD C: In Example 5, 1-5 mg of a sample were weighed into an aluminum DSC pan and sealed non-hermetically with an aluminum lid. The sample pan was then loaded into a TA Instruments Discovery DSC 2500 differential scanning calorimeter equipped with a RC90 cooler. The sample and reference were heated to 190° C. at a scan rate of 10° C./min and the resulting heat flow response monitored. The sample was re-cooled to −80° C. and then reheated again to 190° C. all at 10° C./min. Nitrogen was used as the purge gas, at a flow rate of 50 cm^3/min.
as §1, with “2-10” for “In the examples below, to measure TGA/DSC, 2-10”, “Auto-Simultaneous” for “Auto—Simultaneous”
as §2, with “1-5” for “METHOD A: In Example 3, 1-5”, “min,” for “minutes,”

[3] = Karl Fischer coulometric titration (water content)
Description: In the examples below, KF titration measured using either an In Motion KF Autosampler or Direct Addition Method. The In Motion KF Autosampler was carried out via the following procedure. 15-20 mg of solid was weighed into a 10 mL glass vial and tightly sealed with a screw cap. Samples were analyzed using a Mettler Toledo C30SX and an InMotion KFOven Autosampler at 130° C. Samples were analyzed in duplicate and an average moisture content reported. See table below for further details.
The Direct Addition Method was carried out via the following procedure. 15-20 mg of solid material was accurately weighed into a vial. The solid was then manually introduced into the titration cell of a Mettler Toledo C30 Compact Titrator. The vial was back-weighed after the addition of the solid and the weight of the added solid entered on the instrument. Titration was initiated once the sample had fully dissolved in the cell. The water content was calculated automatically by the instrument as a percentage and the data printed.

[4] = XRPD characterization (summary Table 59); settings: crystallinity

## CCCN1CCNCCCNC(=O)c2cc(OC)c(OC)c(c2)OCCC[C@@H](OC(=O)c2cc(OC)c(OC)c(OC)c2)CC1
[1]; FaSSGF, 25° C., 24 h, pH after 24 h 0.93
  ML purity: 99.67 % area
[1]; FaSSGF, 25 °C, pH 0.93, fassgf or other biorelevant, FaSSGF, 25° C., 24 h, pH after 24 h 0.93, read-out: Solub.
  solubility at 24 h: 81.1 mg/mL (≈ 128 mM)
[1]; FaSSIF, 25° C., 24 h, pH after 24 h 1.12
  ML purity: 99.80 % area
[1]; FaSSIF, 25 °C, pH 1.12, fassif, FaSSIF, 25° C., 24 h, pH after 24 h 1.12, read-out: Solub.
  solubility at 24 h: 76.6 mg/mL (≈ 121 mM)
[1]; FeSSIF, 25° C., 24 h, pH after 24 h 1.07
  ML purity: 99.72 % area
[1]; FeSSIF, 25 °C, pH 1.07, fessif, FeSSIF, 25° C., 24 h, pH after 24 h 1.07, read-out: Solub.
  solubility at 24 h: 133 mg/mL (≈ 211 mM)
[1]; HCl/KCl buffer, 25 °C, pH 1.2, simulated gastric fluid, pH 1.2 (HCl/KCl), attempt 1, 25° C., 24 h, pH after 24 h 0.98→1.22, read-out: Solub.
  solubility at 24 h: > 86.7 mg/mL
[1]; acetate buffer pH 4.5, 25 °C, pH 4.5, aqueous buffer, pH 4.5 buffer media, Attempt 1, 25° C., 24 hours, read-out: solubility
  solubility at 24 h: < 20 mg/mL
[1]; acetate buffer, 25 °C, pH 4.5, aqueous buffer, pH 4.5 (Acetate), attempt 1, 25° C., 24 h, pH after 24 h 4.53, read-out: Solub.
  solubility at 24 h: 17.8 mg/mL (≈ 28.2 mM)
[1]; acetate buffer, 25 °C, pH 4.5, aqueous buffer, pH 4.5 (Acetate), attempt 2, 25° C., 24 h, pH after 24 h 1.68→4.62, read-out: Solub.
  solubility at 24 h: 94.5 mg/mL (≈ 150 mM)
[1]; after 24 hours slurrying in the media (Form 2: all samples except pH 4.5 Attempt 1)
  solution purity of the extracted mother liquors: > 99 % area
[1]; buffers and biorelevant media, 25 °C, pH 1.2, aqueous buffer, pH 1.2 and 4.5 buffers and all the biorelevant media, slurry 25° C., 24 hours, read-out: solubility
  solubility at 24 h: > 75 mg/mL
[1]; pH 1.2
  pH solubility: pH 1.2: >87 mg/mL
  pH solubility: residual solid: mg/mL, no solid
[1]; pH 1.2 (HCl/KCl), attempt 1, 25° C., 24 h, pH after 24 h 0.98→1.22
  ML purity: 99.13 % area
[1]; pH 4.5
  pH solubility: pH 4.5: 95 mg/mL
  pH solubility: residual solid: mg/mL, Form 4
[1]; pH 4.5 (Acetate), attempt 1, 25° C., 24 h, pH after 24 h 4.53
  ML purity: 89.50 % area
[1]; pH 4.5 (Acetate), attempt 2, 25° C., 24 h, pH after 24 h 1.68→4.62
  ML purity: 99.76 % area
[1]; pH 4.5 Attempt 1
  solution purity of the extracted mother liquors: 89 % area
[1]; pH 6.8
  pH solubility: pH 6.8: 12 mg/mL
  pH solubility: residual solid: mg/mL, Gum
[1]; pH 6.8 (Phosphate), attempt 1, 25° C., 24 h, pH after 24 h 1.01→6.87
  ML purity: 99.43 % area
[1]; phosphate buffer, 25 °C, pH 6.8, aqueous buffer, pH 6.8 (Phosphate), attempt 1, 25° C., 24 h, pH after 24 h 1.01→6.87, read-out: Solub.
  solubility at 24 h: 12 mg/mL (≈ 19 mM)
[1]; phosphate buffer, 25 °C, pH 6.8, aqueous buffer, pH 6.8 (Phosphate), attempt 2, 25° C., 24 h, pH after 24 h 4.79→6.90, read-out: Solub.
  solubility at 24 h: 6.1 mg/mL (≈ 9.66 mM)
[2]
  DSC (onset/peak): onset: 144 °C
  DSC (onset/peak): peak: 158 °C
  TGA/DSC mass loss: 7.3% mass loss
[2]; value before the brackets
  TGA/DSC thermal event, onset: 130 °C
[2]; value in brackets
  TGA/DSC thermal event, peak: 149 °C
[3]
  KF moisture content: 6.74% moisture
[4]
  XRPD: Crystalline
